Where two headings read alike, the source gives them in different places.
Tests used:
[1] = biological target: T1, soluble guanylate cyclase (sGC) (Homo sapiens (Human), UniProt Q02108+Q02153); assay: sGC-HEK-cGMP assay run with SNP incubation (HEK WC assay); type: cell-based; details: for HEK WC Assay (fold increase at 30 μM in the presence of 10 μM SNP): compound at 30 μM; for EC50: in the presence of 10 uM SNP
Experimental: Human embryonic kidney cells (HEK293), endogenously expressing soluble guanylate cyclase (sGC), were used to evaluate the activity of test compounds. Compounds stimulating the sGC receptor should cause an increase in the intracellular concentration of cGMP. HEK 293 cells were seeded in Dulbecco's Modification of Eagle's Medium supplemented with fetal bovine serum (10% final) and L-glutamine (2 mM final) in a 200 μL volume at a density of 1×10^5 cells/well in a poly-D-lysine coated 96 well flat bottom plate and grown overnight at 37° C. Medium was aspirated and cells were washed with 1× Hank's Buffered Saline Salt Solution (200 μL). Cells were then incubated for 15 minutes at 37° C. with 0.5 mM 3-isobutyl-1-methylxanthine (200 μL). Test article and sodium nitroprusside were then added to the assay mixture (2 μL each) and incubated at 37° C. for 10 minutes. After the 10 minute incubation, the assay mixture was aspirated and 0.1M HCl (200 μL) was added to the cells. The plate was incubated at 4° C. for 30 minutes in the 0.1M HCl to stop the reaction and lysed the cells. The plates were then centrifuged at 1,200 g for 5 minutes at room temperature. Supernatants were collected and transferred to a new flat bottom 96 well plate for analysis. Vehicle controls were carried out using DMSO (1%). […] Samples were diluted with an equal volume of 1 M Ammonium Acetate (pH 7) to neutralize samples for better chromatography. […] EC50 values were calculated from concentration-response curves generated with GraphPad Prism Software.

[2] = biological target: T1, soluble guanylate cyclase (sGC); assay: sGC-HEK-cGMP assay run in the absence of SNP (HEK WC assay); type: cell-based; details: compound at 30 μM, absence of SNP
Experimental: Human embryonic kidney cells (HEK293), endogenously expressing soluble guanylate cyclase (sGC), were used to evaluate the activity of test compounds. Compounds stimulating the sGC receptor should cause an increase in the intracellular concentration of cGMP. HEK 293 cells were seeded in Dulbecco's Modification of Eagle's Medium supplemented with fetal bovine serum (10% final) and L-glutamine (2 mM final) in a 200 μL volume at a density of 1×10^5 cells/well in a poly-D-lysine coated 96 well flat bottom plate and grown overnight at 37° C. Medium was aspirated and cells were washed with 1× Hank's Buffered Saline Salt Solution (200 μL). Cells were then incubated for 15 minutes at 37° C. with 0.5 mM 3-isobutyl-1-methylxanthine (200 μL). Test article was then added to the assay mixture (2 μL) and incubated at 37° C. for 10 minutes. After the 10 minute incubation, the assay mixture was aspirated and 0.1M HCl (200 μL) was added to the cells. The plate was incubated at 4° C. for 30 minutes in the 0.1M HCl to stop the reaction and lysed the cells. The plates were then centrifuged at 1,200 g for 5 minutes at room temperature. Supernatants were collected and transferred to a new flat bottom 96 well plate for analysis. Vehicle controls were carried out using DMSO (1%). A known sGC stimulator, BAY 41-2272, was used as the positive control. Samples were diluted with an equal volume of 1 M Ammonium Acetate (pH 7) to neutralize samples for better chromatography. A 2× cGMP standard curve was prepared in 0.1 M HCl and then diluted with an equal volume of 1 M Ammonium Acetate, with the following final concentrations in nM: 1024, 512, 256, 128, 64, 32, 16, 8, 4, 2, 1. cGMP concentrations were determined from each sample using the LC/MS conditions (Table 2 below) and calculated standard curve. EC50 values were calculated from concentration-response curves generated with GraphPad Prism Software.

[3] = read-out: HEK WC Assay (% Emax at 1 μM with 10 uM SNP)
[4] = read-out: HEK WC Assay (% Emax at 10 μM with 10 uM SNP)
[5] = read-out: HEK WC Assay (% Emax at 30 μM with 10 uM SNP)

T1 sequence (Q02153 whole entry): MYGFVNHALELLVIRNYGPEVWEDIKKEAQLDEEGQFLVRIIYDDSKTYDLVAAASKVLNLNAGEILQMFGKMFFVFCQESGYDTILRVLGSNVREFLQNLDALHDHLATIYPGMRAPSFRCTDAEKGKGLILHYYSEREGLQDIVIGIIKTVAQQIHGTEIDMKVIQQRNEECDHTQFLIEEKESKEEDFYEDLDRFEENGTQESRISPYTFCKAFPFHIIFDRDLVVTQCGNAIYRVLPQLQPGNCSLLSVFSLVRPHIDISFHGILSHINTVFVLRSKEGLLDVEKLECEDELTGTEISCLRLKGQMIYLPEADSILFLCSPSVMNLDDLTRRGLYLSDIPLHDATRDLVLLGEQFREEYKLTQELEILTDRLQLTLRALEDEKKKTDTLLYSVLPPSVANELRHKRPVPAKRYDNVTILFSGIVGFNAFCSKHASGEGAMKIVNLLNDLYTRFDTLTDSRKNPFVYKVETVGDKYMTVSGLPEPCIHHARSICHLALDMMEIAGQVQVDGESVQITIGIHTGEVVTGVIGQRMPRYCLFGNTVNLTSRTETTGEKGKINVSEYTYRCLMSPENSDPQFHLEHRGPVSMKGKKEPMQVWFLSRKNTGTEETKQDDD
T1 sequence (Q02108 whole entry): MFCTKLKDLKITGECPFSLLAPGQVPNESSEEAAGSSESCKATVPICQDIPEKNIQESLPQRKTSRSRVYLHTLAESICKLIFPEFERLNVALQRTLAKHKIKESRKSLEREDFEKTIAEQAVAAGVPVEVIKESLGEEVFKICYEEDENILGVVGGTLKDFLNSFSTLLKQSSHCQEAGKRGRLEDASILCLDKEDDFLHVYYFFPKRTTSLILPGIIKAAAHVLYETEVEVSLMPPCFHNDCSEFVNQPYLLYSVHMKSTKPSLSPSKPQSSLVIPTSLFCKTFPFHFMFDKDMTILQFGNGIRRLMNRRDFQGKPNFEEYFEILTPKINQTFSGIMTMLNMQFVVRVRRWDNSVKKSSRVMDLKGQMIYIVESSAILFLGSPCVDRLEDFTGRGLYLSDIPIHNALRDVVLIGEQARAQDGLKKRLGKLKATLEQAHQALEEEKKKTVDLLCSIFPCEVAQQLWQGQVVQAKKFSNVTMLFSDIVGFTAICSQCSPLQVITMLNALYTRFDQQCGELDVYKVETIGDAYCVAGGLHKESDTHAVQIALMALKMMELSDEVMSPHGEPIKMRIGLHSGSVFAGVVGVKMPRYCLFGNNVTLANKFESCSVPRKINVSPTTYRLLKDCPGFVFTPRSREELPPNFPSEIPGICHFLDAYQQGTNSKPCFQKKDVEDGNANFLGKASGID

Fc1ccccc1Cn1nc(-c2ncccn2)cc1-c1ccon1 [Compound I-195]
HEK WC Assay (fold increase at 30 μM in the presence of 10 μM SNP) [1]: E (E = 10 to <20 fold increase)
EC50 [1]: < 20 µM
Emax [1, 3]: 40 to 60%
Emax [1, 4]: 60 to 80%
Emax [1, 5]: 60 to 80%
HEK WC Assay (fold increase at 30 μM in the absence of SNP) [2]: D (D = 5 to <10 fold increase)

CC(=O)Nc1c(N)nc(-c2cc(-c3ccon3)n(Cc3ccccc3F)n2)nc1N [Compound I-141]
HEK WC Assay (fold increase at 30 μM in the presence of 10 μM SNP) [1]: C (C = 2 to <5 fold increase)
Emax [1, 4]: 0 to 10%
Emax [1, 5]: 0 to 10%
HEK WC Assay (fold increase at 30 μM in the absence of SNP) [2]: B (B = 1 to <2 fold increase)

Nc1nc(-c2cc(-c3ccon3)n(Cc3ccccc3F)n2)ncc1NC(=O)CCCCl [Compound I-167]
HEK WC Assay (fold increase at 30 μM in the presence of 10 μM SNP) [1]: G (G = 30 to <40 fold increase)
EC50 [1]: < 20 µM
Emax [1, 3]: 60 to 80%
Emax [1, 4]: 80 to 100%
Emax [1, 5]: 100 to 120%
HEK WC Assay (fold increase at 30 μM in the absence of SNP) [2]: D (D = 5 to <10 fold increase)

O=S(=O)(c1ccc(F)cc1)c1cnc(-c2cc(-c3ccon3)n(Cc3ccccc3F)n2)nc1O [Compound I-241]
HEK WC Assay (fold increase at 30 μM in the presence of 10 μM SNP) [1]: E (E = 10 to <20 fold increase)
EC50 [1]: < 20 µM
Emax [1, 3]: 20 to 40%
Emax [1, 4]: 60 to 80%
Emax [1, 5]: 40 to 60%
HEK WC Assay (fold increase at 30 μM in the absence of SNP) [2]: D (D = 5 to <10 fold increase)

Nc1nc(-c2cc(-c3ccon3)n(Cc3ccccc3F)n2)ncc1NC(=O)c1ccc(Cl)cc1 [Compound I-182]
HEK WC Assay (fold increase at 30 μM in the presence of 10 μM SNP) [1]: E (E = 10 to <20 fold increase)
EC50 [1]: < 20 µM
Emax [1, 3]: 60 to 80%
Emax [1, 4]: 80 to 100%
Emax [1, 5]: 80 to 100%
HEK WC Assay (fold increase at 30 μM in the absence of SNP) [2]: E (E = 10 to <20 fold increase)

Oc1ccnc(-c2cc(-c3ccon3)n(Cc3ccccc3F)n2)n1 [Compound I-160, 2-(1-(2-fluorobenzyl)-5-(isoxazol-3-yl)-1H-pyrazol-3-yl)pyrimidin-4-ol]
HEK WC Assay (fold increase at 30 μM in the presence of 10 μM SNP) [1]: E (E = 10 to <20 fold increase)
EC50 [1]: < 20 µM
Emax [1, 3]: 10 to 20%
Emax [1, 4]: 40 to 60%
Emax [1, 5]: 40 to 60%
HEK WC Assay (fold increase at 30 μM in the absence of SNP) [2]: C (C = 2 to <5 fold increase)

Nc1nc(-c2cc(-c3ccon3)n(Cc3ccccc3F)n2)ncc1NC(=O)c1cccnc1 [Compound I-179]
HEK WC Assay (fold increase at 30 μM in the presence of 10 μM SNP) [1]: E (E = 10 to <20 fold increase)
EC50 [1]: < 20 µM
Emax [1, 3]: 40 to 60%
Emax [1, 4]: 60 to 80%
Emax [1, 5]: 80 to 100%
HEK WC Assay (fold increase at 30 μM in the absence of SNP) [2]: E (E = 10 to <20 fold increase)

Nc1nc(-c2cc(-c3ccon3)n(Cc3ccccc3F)n2)ncc1NC(=O)c1cocn1 [Compound I-180]
HEK WC Assay (fold increase at 30 μM in the presence of 10 μM SNP) [1]: E (E = 10 to <20 fold increase)
EC50 [1]: < 20 µM
Emax [1, 3]: 40 to 60%
Emax [1, 4]: 80 to 100%
Emax [1, 5]: 80 to 100%
HEK WC Assay (fold increase at 30 μM in the absence of SNP) [2]: D (D = 5 to <10 fold increase)

Fc1ccccc1Cn1nc(-c2ncccn2)cc1-c1ncco1 [Compound I-309]
HEK WC Assay (fold increase at 30 μM in the presence of 10 μM SNP) [1]: E (E = 10 to <20 fold increase)
EC50 [1]: < 20 µM
Emax [1, 4]: 20 to 40%
Emax [1, 5]: 20 to 40%
HEK WC Assay (fold increase at 30 μM in the absence of SNP) [2]: B (B = 1 to <2 fold increase)

Fc1ccccc1Cn1nc(-c2ncccn2)cc1C1=NCCO1 [Compound I-290]
HEK WC Assay (fold increase at 30 μM in the presence of 10 μM SNP) [1]: C (C = 2 to <5 fold increase)
Emax [1, 4]: 10 to 20%
Emax [1, 5]: 20 to 40%
HEK WC Assay (fold increase at 30 μM in the absence of SNP) [2]: B (B = 1 to <2 fold increase)

Fc1cccc(Cn2nc(-c3ncccn3)cc2-c2ccon2)c1F [Compound I-198]
HEK WC Assay (fold increase at 30 μM in the presence of 10 μM SNP) [1]: E (E = 10 to <20 fold increase)
EC50 [1]: < 20 µM
Emax [1, 3]: 40 to 60%
Emax [1, 4]: 40 to 60%
Emax [1, 5]: 60 to 80%
HEK WC Assay (fold increase at 30 μM in the absence of SNP) [2]: D (D = 5 to <10 fold increase)

FC(F)(F)c1ccccc1Cn1nc(-c2ncccn2)cc1-c1ccon1 [Compound I-201]
HEK WC Assay (fold increase at 30 μM in the presence of 10 μM SNP) [1]: B (B = 1 to <2 fold increase)
Emax [1, 3]: 0 to 10%
Emax [1, 4]: 0 to 10%
Emax [1, 5]: 0 to 10%
HEK WC Assay (fold increase at 30 μM in the absence of SNP) [2]: B (B = 1 to <2 fold increase)

— patent US10189809B2, “SGC stimulators” (Ironwood Pharmaceuticals, Inc., priority 2010, dated 2019)
